Results on ten compounds are retold here after patent US12678419B2, “Compounds” (Sitryx Therapeutics Limited, priority 2020, dated 2026).

Structures are written as SMILES. Where “and” joins values, the source holds several entries; their conditions need not be identical. Equal entries are not always repeated.

Data set [1] in a line: Hepatocyte stability assay, human. The format is in vitro ADME. As to conditions: human, cryopreserved hepatocytes, 10 μM compound, read-out: T½. An excerpt:
(§1) Defrosted cryo-preserved hepatocytes (viability >70%) were used to determine the metabolic stability of a compound via calculation of intrinsic clearance (Clint; a measure of the removal of a compound from the liver in the absence of blood flow and cell binding). Clearance data are particularly important for in vitro work as they can be used in combination with in vivo data to predict the half-life and oral bioavailability of a drug.
(§2) The metabolic stability in hepatocytes assay involves a time-dependent reaction using both positive and negative controls. The cells were pre-incubated at 37° C. and spiked with test compound (and positive control); samples were taken at pre-determined time intervals were analysed to monitor the change in concentration of the initial drug compound over 60 minutes. A buffer incubation reaction (with no hepatocytes present) acted as a negative control and two cocktail solutions, containing compounds with known high and low clearance values (verapamil/7-hydroxycoumarin and propranolol/diltiazem), acted as positive controls. • 1. The assay was run with a cell concentration of 0.5×10^6 cells/mL in Leibovitz buffer. • 2. All compounds and controls were run in duplicate. • 3. Compound concentration was 10 μM. • 4. All compounds and controls were incubated with both cells and buffer to show turnover was due to hepatic metabolism. • 5. All wells on the incubation plate had 326.7 μL of either cells or buffer added. • 6. Prior to assay, cell and buffer-only incubation plates were preincubated for 10 mins at 37° C. • 7. The assay was initiated by adding compounds, 3.3 μL of 1 mM in 10% DMSO-90% Buffer; final DMSO concentration was 0.1%. • 8. Samples were taken at regular timepoints (0, 5, 10, 20, 40, 60 min) until 60 mins. • 9. Sample volume was 40 μL and was added to 160 μL of crash solvent (acetonitrile with internal standard) and stored on ice. • 10. At the end of the assay, the crash plates were centrifuged at 3500 rpm for 20 mins at 4° C. • 11. 80 μL of clear supernatant was removed and mixed with 80 μL of deionised water before being analysed by LC-MS/MS.
(§3) Raw LC-MS/MS data was exported to, and analysed in, Microsoft Excel for determination of intrinsic clearance. The percentage remaining of a compound was monitored using the peak area of the initial concentration as 100%. Intrinsic clearance and half-life values were calculated using a graph of the natural log of percentage remaining versus the time of reaction in minutes. Half-life (min) and intrinsic clearance (Clint in μL min^−1 10^−6 cells) values were calculated using the gradient of the graph (the elimination rate constant, k) and Equations 1 and 2.

In data set [2] the test system is human hepatocytes. Briefly: Hepatocyte stability assay, human. The format is in vitro ADME. As to conditions: 10 μM compound.
Source text: as §1, §2, §3

Data set [3] deals with IL-1β cytokine output from THP-1s. Briefly: THP-1 AlphaLISA IL-1β cytokine assay. Format: cell-based. Conditions: Homo sapiens, THP-1, differentiated THP-1 cells, LPS then nigericin; Table 1. The procedure:
(§4) The cytokine inhibition profiles of compounds of formula (I) were determined in a differentiated THP-1 cell assay. All assays were performed in RPMI-1640 growth medium (Gibco), supplemented with 10% fetal bovine serum (FBS; Gibco), 1% penicillin-streptomycin and 1% sodium pyruvate unless specified otherwise. The IL-1β and IL-6 cytokine inhibition assays were each run in a background of differentiated THP-1 cells as described below. All reagents described were from Sigma-Aldrich unless specified otherwise. Compounds were prepared as 10 mM DMSO stocks.
(§5) THP-1 cells were expanded as a suspension up to 80% confluence in appropriate growth medium. Cells were harvested, suspended, and treated with an appropriate concentration of phorbol 12-myristate 13-acetate (PMA) over a 72 hr period (37° C./5% CO2).
(§6) Following 72 hrs of THP-1 cell incubation, cellular medium was removed and replaced with fresh growth media containing 1% of FBS. Working concentrations of compounds were prepared separately in 10% FBS treated growth medium and pre-incubated with the cells for 30 minutes (37° C./5% CO2). Following the 30 minute compound pre-incubation, THP-1s were treated with an appropriate concentration of LPS and the THP-1s were subsequently incubated for a 24 hr period (37° C./5% CO2). An appropriate final concentration of Nigericin was then dispensed into the THP-1 plates and incubated for 1 hour (37° C./5% CO2) before THP-1 supernatants were harvested and collected in separate polypropylene 96-well holding plates.
(§7) Reagents from each of the IL-1β and IL-6 commercial kits (Perkin Elmer) were prepared and run according to the manufacturer's instructions. Subsequently, fluorescence signal detection in a microplate reader was measured (EnVision® Multilabel Reader, Perkin Elmer).
(§8) Percentage inhibition was calculated per cytokine by normalising the sample data to the high and low controls used within each plate (+/− LPS respectively). Percentage inhibition was then plotted against compound concentration and the 50% inhibitory concentration (IC50) was determined from the resultant concentration-response curve.
(In general: Alpha assays give light when donor and acceptor beads are brought close together.)

For data set [4], the system named is IL-6 cytokine output from THP-1s. The experiment in a line: THP-1 AlphaLISA IL-6 cytokine assay. The format is cell-based. Conditions: LPS then nigericin, Table 1. The procedure: as §4, §5, §6, §7, §8
The nature of data set [5]: Hepatocyte stability assay, mouse. Format: in vitro ADME. Conditions: mouse, cryopreserved hepatocytes, 10 μM compound, read-out: T½.
Source text: as §1, §2, §3

Data set [6] has as its system mouse hepatocytes. Briefly: Hepatocyte stability assay, mouse. The format is in vitro ADME. As to conditions: 10 μM compound.
Source text: as §1, §2, §3

Data set [7] concerns NRF2 (nuclear factor erythroid 2-related factor 2). The experiment in a line: NRF2 +/-GSH activation assay (DiscoverX PathHunter NRF2 translocation kit, U2OS cells). The format is cell-based. As to conditions: for Emax (%) +GSH / Emax (%) −GSH: normalised to dimethyl fumarate high control.
Where [8] appears, read: Homo sapiens, THP-1, differentiated THP-1 cells.

On to `C=C(CC(=O)OC1CCc2c(Cl)cc(Cl)cc21)C(=O)O[C@H](CC(=O)O)C(F)(F)F` (single isomer, unassigned; diastereomer a) [Example 22], for which the results for the half-life at 10 μM in data set [1] and in data set [5] were 7 min and < 3 min, respectively. Also, the results for the “Clint (μL min^−1 10^−6 cells)” value in data set [2] and in data set [6] were 252 μL min^−1 10^−6 cells and >460 μL min^−1 10^−6 cells, respectively. The IC50 in data set [3] was determined as 1.7 µM; in data set [4] (setting [8]) it was 1.2 µM.
Regarding `C=C(CC(=O)OC1CCc2c(Cl)cc(Cl)cc21)C(=O)O[C@@H](CC(=O)O)C(F)(F)F` (single isomer, unassigned; diastereomer b) [Example 23], the half-life at 10 μM is 9 min in data set [1] and < 3 min in data set [5]. In addition, the “Clint (μL min^−1 10^−6 cells)” value in data set [2] is 190 μL min^−1 10^−6 cells; in data set [6], >460 μL min^−1 10^−6 cells. Further, the IC50 in data set [3] and in data set [4] (setting [8]) was 1.2 µM in each case.
Consider `C=C(CC(=O)OC1CCc2cc(Cl)cc(Cl)c2C1)C(=O)OCC(=O)O` (single isomer, unassigned; enantiomer 1) [Example 10, 2-((4-((6,8-dichloro-1,2,3,4-tetrahydronaphthalen-2-yl)oxy)-2-methylene-4-oxobutanoyl)oxy)acetic acid (Enantiomer 1)], for which the figures for the half-life at 10 μM in data set [1] and in data set [5] were 81 min and 7 min, respectively. Also, the results for the “Clint (μL min^−1 10^−6 cells)” value in data set [2] and in data set [6] were 18 μL min^−1 10^−6 cells and 225 μL min^−1 10^−6 cells, respectively. The compound further yielded an IC50 in data set [3] of 6.6 µM.
Consider `C=C(CC(=O)OC1CCc2c(Cl)cc(Cl)cc21)C(=O)OCCC(=O)O` (single isomer, unassigned; enantiomer 1) [Example 14, 3-((4-((4,6-dichloro-2,3-dihydro-1H-inden-1-yl)oxy)-2-methylene-4-oxobutanoyl)oxy)propanoic acid (Enantiomer 1)], for which the EC50 in data set [7] (+GSH) was 36.7 µM; in data set [7] (−GSH), 27.8 µM. The “Emax (%) +GSH” value in data set [7] (+GSH) came out at 118%. Also, the “Emax (%) −GSH” value in data set [7] (−GSH) is listed as 193%. In addition, the results for the half-life at 10 μM in data set [1] and in data set [5] were 75 min and 7 min, respectively. Also, the results for the “Clint (μL min^−1 10^−6 cells)” value in data set [2] and in data set [6] were 19 μL min^−1 10^−6 cells and 224 μL min^−1 10^−6 cells, respectively. In addition, the concentration for half-maximal inhibition (IC50) in data set [3] worked out at 2.8 µM.
On to `C=C(CC(=O)OC1CCCc2c(Cl)cc(Cl)cc21)C(=O)OCC(=O)O` (single isomer, unassigned; enantiomer 1) [Example 24, 2-((4-((5,7-dichloro-1,2,3,4-tetrahydronaphthalen-1-yl)oxy)-2-methylene-4-oxobutanoyl)oxy)acetic acid (Enantiomer 1)], for which the half-maximal effective concentration (EC50) in data set [7] (+GSH) is 5.7 µM; in data set [7] (−GSH) it was 6 µM. The “Emax (%) +GSH” value in data set [7] (+GSH) stood at 84%. Further, in data set [7] (−GSH), the “Emax (%) −GSH” value came to 148%. In addition, the half-life at 10 μM in data set [1] amounted to 32 min. The “Clint (μL min^−1 10^−6 cells)” value in data set [2] worked out at 54 μL min^−1 10^−6 cells; in data set [6], 56 μL min^−1 10^−6 cells. Besides, the IC50 amounted to 3.3 µM in data set [3] and 4.1 µM in data set [4] (setting [8]). For the same compound, in data set [6], the “T½” value was 34 min.
With `C=C(CC(=O)OC1CCc2cc(C(F)(F)F)ccc21)C(=O)OCC(=O)O` (single isomer, unassigned; enantiomer 1) [Example 27, 2-((2-methylene-4-oxo-4-((5-(trifluoromethyl)-2,3-dihydro-1H-inden-1-yl)oxy)butanoyl)oxy)acetic acid (Enantiomer 1)], the EC50 was 35.1 µM and 37.5 µM in data set [7] (+GSH); 12.2 µM and 22.2 µM in data set [7] (−GSH). The “Emax (%) +GSH” value in data set [7] (+GSH) is 139% and 136%. Besides, the “Emax (%) −GSH” value in data set [7] (−GSH) was 157% and 201%. Also, the results for the half-life at 10 μM in data set [1] and in data set [5] were 169 min and 16 min, respectively. In addition, the “Clint (μL min^−1 10^−6 cells)” value was found to be 9 μL min^−1 10^−6 cells in data set [2] and 97 μL min^−1 10^−6 cells in data set [6]. Moreover, the IC50 in data set [3] turned out to be 11.9 µM; in data set [4] (setting [8]) it was 8.6 µM.
Take `C=C(CC(=O)OC1CCc2ccc(OC(F)(F)F)cc21)C(=O)OCC(=O)O` (single isomer, unassigned; enantiomer 1) [Example 28, 2-((2-methylene-4-oxo-4-((6-(trifluoromethoxy)-2,3-dihydro-1H-inden-1-yl)oxy)butanoyl)oxy)acetic acid (Enantiomer 1)]: in data set [7] (+GSH), a half-maximal response (EC50) required 22.5 µM and the “Emax (%) +GSH” value was found to be 139%. Also, in data set [7] (−GSH), the EC50 amounted to 8 µM and the “Emax (%) −GSH” value was determined as 160%. In addition, in data set [1], the half-life at 10 μM is 75 min. For the same compound, the “Clint (μL min^−1 10^−6 cells)” value in data set [2] was determined as 21 μL min^−1 10^−6 cells. The same compound registered an IC50 in data set [3] of 11.7 µM. Also, the concentration for half-maximal inhibition (IC50) in data set [4] (differentiated THP-1 cells) is 7.6 µM. Also, in data set [6], the “Clint (μL min^−1 10^−6 cells)” value is given as 49 μL min^−1 10^−6 cells and the “T½” value turned out to be 32 min.
For the compound `C=C(CC(=O)OC1CCCc2cc(C(F)(F)F)ccc21)C(=O)OCC(=O)O` (single isomer, unassigned; enantiomer 1) [Example 31, 2-((2-methylene-4-oxo-4-((6-(trifluoromethyl)-1,2,3,4-tetrahydronaphthalen-1-yl)oxy)butanoyl)oxy)acetic acid (Enantiomer 1)], the EC50 is 22.9 µM in data set [7] (+GSH) and 11.3 µM in data set [7] (−GSH). Moreover, in data set [7] (+GSH), the “Emax (%) +GSH” value is reported as 137%. The “Emax (%) −GSH” value in data set [7] (−GSH) was 141%. For the same compound, the half-life at 10 μM in data set [1] worked out at 61 min; in data set [5] it was 6 min. In addition, the “Clint (μL min^−1 10^−6 cells)” value in data set [2] amounted to 29 μL min^−1 10^−6 cells; in data set [6], 272 μL min^−1 10^−6 cells. Also, the IC50 in data set [3] and in data set [4] (setting [8]) was 9.6 µM in each case.
`C=C(CC(=O)OC1CCc2cc(C(F)(F)F)ccc21)C(=O)OCC(=O)O` (stereo not shown) [Example 17, 2-((2-methylene-4-oxo-4-((5-(trifluoromethyl)-2,3-dihydro-1H-inden-1-yl)oxy)butanoyl)oxy)acetic acid]: the results for the EC50 in data set [7] (+GSH) and in data set [7] (−GSH) were 35.4 µM and 29.2 µM, respectively. The “Emax (%) +GSH” value in data set [7] (+GSH) turned out to be 184%. The “Emax (%) −GSH” value in data set [7] (−GSH) worked out at 305%. Moreover, the values for the half-life at 10 μM in data set [1] and in data set [5] were 227 min and 21 min, respectively. For the same compound, the figures for the “Clint (μL min^−1 10^−6 cells)” value in data set [2] and in data set [6] were 6 μL min^−1 10^−6 cells and 72 μL min^−1 10^−6 cells, respectively. This compound also came in with an IC50 in data set [3] of 2.8 µM.
As for `C=C(CC(=O)OC1CCc2ccc(OC(F)(F)F)cc21)C(=O)OCC(=O)O` (stereo not shown) [Example 18, 2-((2-methylene-4-oxo-4-((6-(trifluoromethoxy)-2,3-dihydro-1H-inden-1-yl)oxy)butanoyl)oxy)acetic acid], in data set [7] (+GSH), the midpoint of the response, the EC50, lay at 18.4 µM and the “Emax (%) +GSH” value is on record as 105%. For the same compound, in data set [7] (−GSH), the EC50 turned out to be 8.7 µM and the “Emax (%) −GSH” value amounted to 121%. In data set [3], this compound displayed an IC50 of 2.1 µM. In addition, the half-life at 10 μM in data set [5] worked out at 10 min. The “Clint (μL min^−1 10^−6 cells)” value in data set [6] is reported as 146 μL min^−1 10^−6 cells.

The IC50 is the concentration that gives 50% inhibition. Broadly, the EC50 is the midpoint of the concentration-response curve.
